22 molecules from patent US20250319110A1, “SURFACE CALR CHEMICAL INDUCERS” (THE CHILDREN'S MEDICAL CENTER CORPORATION, priority 2022, published 2025) can be followed below.

Counter-ions that a name gives are not always drawn. Where a SMILES comes first, the peptide text is derived from it. The star is where a group is joined. Cbz = O=C(OCc1ccccc1)*

In one test the test system is reactive oxygen species (ROS). As to the kind of experiment: ROS production by CALR agonists (ROS+ / ROS− classification of screen hits). Format: cell-based, human. The following applies: CALR agonists that do not stimulate ROS production or only to negligible levels. The procedure:
To systematically evaluate pathways triggering surface CALR, a panel of 1200 bioactive small molecules in human cells were screened. Surface CALR expression was evaluated by imaging a CALR-antibody coupled with a fluorophore and by a SPLIT-TURBO ID construct targeting the association of […] (Cadherin 2), a membrane protein, and CALR. 93 out of 1200 compounds screened increased surface CALR with a robust dosage response. Chemical annotation further supported that ROS+ drugs were associated with FOXO1A and oxidative stress, while the ROS− drugs were associated with G protein-coupled receptor signaling and cellular calcium ion homeostasis. In vivo ROS− drugs induced macrophage-stem cell interaction and grooming behavior, while ROS+ drugs enhanced the macrophage-stem cell interaction, but not grooming. Collectively, the work described herein has identified ROS as a signal that upregulates surface CALR and promotes macrophage-stem cell interactions, safeguarding the development of stem cells that are stressed or damaged.
As described in the examples herein, some CALR agonists do stimulate reactive oxygen species (ROS) production; or stimulate ROS production to statistically significant levels. This group of CALR agonists are referred to herein as “ROS+ CALR agonists.” ROS+ CALR agonists include Ibudilast; zaprinast; FK-520; AG1478; bongkrekic acid; GW9508; fusidic acid; beta-lapachone; fusaric acid; fenspiride; zardaverine; docosahexaenoic acid, loxoprofen; AG1480; flufenamic acid; and MG-132.
This group of CALR agonists are referred to herein as “ROS− CALR agonists.” ROS-CALR agonists include DL-threo-1-Phenyl-2-palmitoylamino-3-morpholino-1-propanol; cambinol; ganciclovir; 8-bromo-GMP; arvanil; thiocitrulline; and isoguvacine. In some embodiments, an at least one ROS− CALR agonist can be selected from the group consisting of: DL-threo-1-Phenyl-2-palmitoylamino-3-morpholino-1-propanol; ganciclovir; 8-bromo-GMP; arvanil; thiocitrulline; and isoguvacine.
A chemical screen was conducted to identify surface CALR inducers in a ROS-associated and a ROS-independent manner (FIG. 4). Hits from the screen was validated in vivo as CALR inducers (FIGS. 5A-5B). ROS− drugs tended to induce macrophage-stem cell interaction and proliferation. ROS+ drugs tended to promote dooming (FIGS. 6A-6C).
As for `CCCCCCCCCCCCCCCC(=O)N[C@H](CN1CCOCC1)[C@H](O)c1ccccc1` (racemic) [DL-threo-1-Phenyl-2-palmitoylamino-3-morpholino-1-propanol], the “ROS production class of CALR agonist” value is given as “ROS−”.

Regarding `Nc1nc2c(nc(Br)n2[C@@H]2O[C@H](COP(=O)(O)O)[C@@H](O)[C@H]2O)c(=O)[nH]1` [8-bromo-GMP, 8-bromo-guanosine monophosphate], the “ROS production class of CALR agonist” value is reported as “ROS−”. Same read-out and setting: the value for `CCCCC/C=C\C/C=C\C/C=C\C/C=C\CCCC(=O)NCc1ccc(O)c(OC)c1` [arvanil, N-vanillylarachidonamide] was “ROS−”.

As to `O=c1[nH]c(=S)[nH]c(-c2ccccc2)c1Cc1c(O)ccc2ccccc12` [cambinol, 5-[(2-hydroxynaphthalen-1-yl)methyl]-6-phenyl-2-sulfanylidene-1H-pyrimidin-4-one], the “ROS production class of CALR agonist” value is reported as “ROS−”. The same measure, in the same setting: for `Nc1nc(O)c2ncn(COC(CO)CO)c2n1` [ganciclovir, 2-Nor-2′-deoxyguanosine] the value was “ROS−”; for `O=C(O)C1=CCNCC1` [isoguvacine, 1,2,3,6-tetrahydropyridine-4-carboxylic acid], “ROS−”; for `CSC(=N)NCCC[C@H](N)C(=O)O.Cl.Cl` [thiocitrulline, N^5-[imino(methylthio)methyl]-L-ornithine, dihydrochloride], “ROS−”.

Staying with this test, now noted: CALR agonists that stimulate ROS production.
In the case of `CC(C(=O)O)c1ccc(CC2CCCC2=O)cc1` (racemic) [loxoprofen, (RS)-2-{4-[(2-oxocyclopentyl)methyl]phenyl}propanoic acid], the “ROS production class of CALR agonist” value is given as “ROS+”. Same read-out and setting: for `COc1cc2ncnc(Nc3cccc(Cl)c3)c2cc1OC` [AG1478, N-(3-chlorophenyl)-6,7-dimethoxyquinazolin-4-amine] the value was “ROS+”. In the case of `CC[C@@H]1/C=C(\C)C[C@H](C)C[C@H](OC)[C@H]2O[C@@](O)(C(=O)C(=O)N3CCCC[C@H]3C(=O)O[C@H](/C(C)=C/[C@@H]3CC[C@@H](O)[C@H](OC)C3)[C@H](C)[C@@H](O)CC1=O)[C@H](C)C[C@@H]2OC` [FK-520, ascomycin], the “ROS production class of CALR agonist” value is “ROS+”. Same read-out and setting: the value for `O=C(O)CCc1ccc(NCc2cccc(Oc3ccccc3)c2)cc1` [GW9508, 4-[[(3-phenoxyphenyl)methyl]amino]-benzenepropanoic acid] was “ROS+”; that for `CC(C)C(=O)c1c(C(C)C)nn2ccccc12` [Ibudilast, 2-methyl-1-(2-propan-2-ylpyrazolo[1,5-a]pyridin-3-yl)propan-1-one] was “ROS+”; that for `CC(C)C[C@@H](C=O)NC(=O)[C@H](CC(C)C)NC(=O)[C@H](CC(C)C)NC(=O)OCc1ccccc1` [MG-132, benzyl N-[(2S)-4-methyl-1-[[(2S)-4-methyl-1-[[(2S)-4-methyl-1-oxopentan-2-yl]aamino]-1-oxopentan-2-yl]amino]-1-oxopentan-2-yl]carbamate] (Cbz-Leu-Leu-Leu-aldehyde) was “ROS+”. Regarding `CC1(C)CCC2=C(O1)c1ccccc1C(=O)C2=O` [beta-lapachone, 2,2-dimethyl-3,4-dihydrobenzo[h]chromene-5,6-dione], the “ROS production class of CALR agonist” value was “ROS+”. The same measure, in the same setting: for `CO[C@H](C/C=C\C=C\CC/C=C/C[C@H](C)/C=C/C(=C\C(=O)O)CC(=O)O)/C(C)=C\C=C(/C)C(=O)O` [bongkrekic acid, (2E,4Z,6R,8Z,10E,14E,17S,18E,20Z)-20-(carboxymethyl)-6-methoxy-2,5,17-trimethyldocosa-2,4,8,10,14,18,20-heptaenedioic acid] the value was “ROS+”; for `CC/C=C\C/C=C\C/C=C\C/C=C\C/C=C\C/C=C\CCC(=O)O` [docosahexaenoic acid], “ROS+”. The same measure, in the same setting: the value for `O=C1NCC2(CCN(CCc3ccccc3)CC2)O1` [fenspiride, 8-(2-phenylethy)-1-oxa-3,8-diazaspiro[4.5]decan-2-one, monohydrochloride] was “ROS+”; that for `O=C(O)c1ccccc1Nc1cccc(C(F)(F)F)c1` [flufenamic acid, 2-[3-(trifluoromethyl)anilino]benzoic acid] was “ROS+”; that for `CCCCc1ccc(C(=O)O)nc1` [fusaric acid] was “ROS+”. With `CC(=O)O[C@H]1C[C@@]2(C)[C@@H](C[C@@H](O)[C@H]3[C@@]4(C)CC[C@@H](O)[C@@H](C)[C@@H]4CC[C@@]32C)/C1=C(\CCC=C(C)C)C(=O)O` [fusidic acid], the “ROS production class of CALR agonist” value is recorded as “ROS+”. `CCCOc1ccccc1-c1nc2n[nH]nc2c(=O)[nH]1` [zaprinast, 5-(2-propoxyphenyl)-2,6-dihydrotriazolo[4,5-d]pyrimidin-7-one]: the “ROS production class of CALR agonist” value is on record as “ROS+”. For the molecule `COc1cc(-c2ccc(=O)[nH]n2)ccc1OC(F)F` [zardaverine, 6-[4-(difluoromethoxy)-3-methoxyphenyl]-3(2H)-pyridazinone], the “ROS production class of CALR agonist” value is recorded as “ROS+”.
